Test results published in ChEMBL document CHEMBL1201862, “PubChem BioAssay data set” (2004).
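Protocol summary: plate cells (96-well), add compound at 5 concentrations, incubate 48 h, interpolate endpoints linearly. The concentration for 50% growth inhibition is given as GI50.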 Active and inactive are the calls of the source. Cut-off read from the data, not from the text of the source: active = GI50 up to about 1.1 µM and inactive = higher.

Tests used:
Experiment in all cases: NCI-60 cell line screen, 48 h
KM12 = tested on: KM12
NCI-H226 = tested on: NCI-H226
A498 = tested on: A498
SK-OV-3 = tested on: SK-OV-3
OVCAR-3 = tested on: OVCAR-3
HOP-92 = tested on: HOP-92
TK-10 = tested on: TK-10
HL-60 = tested on: HL-60
U-251 = tested on: U-251
IGROV-1 = tested on: IGROV-1
SNB-75 = tested on: SNB-75
UO-31 = tested on: UO-31
HT-29 = tested on: HT-29
SF-539 = tested on: SF-539
LOX IMVI = tested on: LOX IMVI
MOLT-4 = tested on: MOLT-4
NCI-H522 = tested on: NCI-H522

SMILES | GI50 (KM12) | GI50 (NCI-H226) | GI50 (A498) | GI50 (SK-OV-3) | GI50 (OVCAR-3) | GI50 (HOP-92) | GI50 (TK-10) | GI50 (HL-60) | GI50 (U-251) | GI50 (IGROV-1) | GI50 (SNB-75) | GI50 (UO-31) | GI50 (HT-29) | GI50 (SF-539) | GI50 (LOX IMVI) | GI50 (MOLT-4) | GI50 (NCI-H522)
CC(C)=CC1CCc2ccccc2N1S(=O)(=O)c1ccc(C)cc1 (stereo not given) | 0.624 µM (active) | 1.77 µM (inactive) | 1.61 µM (inactive) | 1.7 µM (inactive) | 0.865 µM (active) | 0.433 µM (active) | 2.81 µM (inactive) | 0.272 µM (active) | 1.19 µM (inactive) | 2.4 µM (inactive) | 1.17 µM (inactive) | 3.61 µM (inactive) | 1.36 µM (inactive) | 1.16 µM (inactive) | 1.68 µM (inactive) | 1.18 µM (inactive) | 1.52 µM (inactive)
CC1NOC(=O)C1/N=N/c1ccccc1Br (stereo not given) | 21.2 µM (inactive) | 31.6 µM (inactive) | 26.8 µM (inactive) | 38.1 µM (inactive) | 20.5 µM (inactive) | 24 µM (inactive) | 24.5 µM (inactive) | 18.9 µM (inactive) | 22.4 µM (inactive) | 36 µM (inactive) | 31.4 µM (inactive) | 18.6 µM (inactive) | 39.6 µM (inactive) | 22.3 µM (inactive) | 23.9 µM (inactive) | 29 µM (inactive) | 18.5 µM (inactive)
COc1ccccc1NC(=O)C1=C(C)NC(C)=C(C(=O)Nc2ccccc2OC)C1c1ccccc1F | 66.7 µM (inactive) | > 100 µM (inactive) | > 100 µM (inactive) | > 100 µM (inactive) | > 100 µM (inactive) | 79.3 µM (inactive) | > 100 µM (inactive) | 46.2 µM (inactive) | 90.8 µM (inactive) | > 100 µM (inactive) | 18 µM (inactive) | 62.7 µM (inactive) | 91.4 µM (inactive) | 30.5 µM (inactive) | > 100 µM (inactive) | 49.2 µM (inactive) | –
IC[P+]1(c2ccccc2)CCCC1 | 32.5 µM (inactive) | 24.2 µM (inactive) | 23.8 µM (inactive) | > 100 µM (inactive) | 43 µM (inactive) | – | 47.3 µM (inactive) | 45.1 µM (inactive) | 12.8 µM (inactive) | > 100 µM (inactive) | 26.2 µM (inactive) | > 100 µM (inactive) | 37.3 µM (inactive) | 45.3 µM (inactive) | 26.7 µM (inactive) | 72.9 µM (inactive) | 8.36 µM (inactive)
CN/N=C(/CC(=O)c1sc(-n2nc(-c3ccccc3)cc2-c2ccccc2)nc1C)C(=O)Nc1ccc(Cl)c(Cl)c1 | 41.7 µM (inactive) | 17.2 µM (inactive) | 16.1 µM (inactive) | 24.6 µM (inactive) | 38.7 µM (inactive) | 14.1 µM (inactive) | – | – | 24.6 µM (inactive) | 61 µM (inactive) | – | 21.2 µM (inactive) | 25.9 µM (inactive) | 40.2 µM (inactive) | 22.5 µM (inactive) | 16.7 µM (inactive) | 28.1 µM (inactive)
COc1ccc(-c2cc(O)c3cc4c(cc3n2)OCO4)c(OC)c1 | 41.6 µM (inactive) | – | – | 87.3 µM (inactive) | – | 82 µM (inactive) | > 100 µM (inactive) | 20 µM (inactive) | 59.4 µM (inactive) | > 100 µM (inactive) | 4.4 µM (inactive) | 57.3 µM (inactive) | 43 µM (inactive) | 51.3 µM (inactive) | 47.9 µM (inactive) | 30.2 µM (inactive) | 46.9 µM (inactive)
CNC(=O)OCc1nc(SC(C)C)n(C)c1COC(=O)NC | > 100 µM (inactive) | > 100 µM (inactive) | > 100 µM (inactive) | > 100 µM (inactive) | > 100 µM (inactive) | > 100 µM (inactive) | – | 57 µM (inactive) | > 100 µM (inactive) | > 100 µM (inactive) | > 100 µM (inactive) | > 100 µM (inactive) | > 100 µM (inactive) | > 100 µM (inactive) | > 100 µM (inactive) | 44.8 µM (inactive) | 58.5 µM (inactive)
CC12CCC(C)(c3cc(O)c(O)cc31)c1cc(O)c(O)cc12 | 17.1 µM (inactive) | – | – | 19.2 µM (inactive) | 17.8 µM (inactive) | 10.7 µM (inactive) | 19.8 µM (inactive) | 3.38 µM (inactive) | – | 20.3 µM (inactive) | 11.6 µM (inactive) | 19.8 µM (inactive) | 14.7 µM (inactive) | – | 16.4 µM (inactive) | 15.1 µM (inactive) | 2.29 µM (inactive)
Cn1cc(C2(C)CC(C)(C)c3c2n(C)c2ccccc32)c2ccccc21 (stereo not given) | 94 µM (inactive) | 90.2 µM (inactive) | > 100 µM (inactive) | > 100 µM (inactive) | 64 µM (inactive) | > 100 µM (inactive) | > 100 µM (inactive) | – | > 100 µM (inactive) | > 100 µM (inactive) | > 100 µM (inactive) | 92.7 µM (inactive) | 49.8 µM (inactive) | > 100 µM (inactive) | > 100 µM (inactive) | 42.4 µM (inactive) | 40.3 µM (inactive)
N/N=C1/C(=O)N(c2ccc(Cl)cc2)C(=O)C(=O)C1c1nc2ccccc2s1 (stereo not given) | > 100 µM (inactive) | – | > 100 µM (inactive) | > 100 µM (inactive) | > 100 µM (inactive) | > 100 µM (inactive) | > 100 µM (inactive) | > 100 µM (inactive) | > 100 µM (inactive) | > 100 µM (inactive) | > 65.6 µM (inactive) | > 100 µM (inactive) | > 100 µM (inactive) | > 100 µM (inactive) | > 100 µM (inactive) | > 100 µM (inactive) | > 100 µM (inactive)
[O-][S+]1c2ccc(Cl)cc2CC(SSC2Cc3cc(Cl)ccc3[S+]([O-])c3ccccc32)c2ccccc21 (stereo not given) | > 100 µM (inactive) | > 100 µM (inactive) | – | > 100 µM (inactive) | > 100 µM (inactive) | > 100 µM (inactive) | > 100 µM (inactive) | > 100 µM (inactive) | > 100 µM (inactive) | > 100 µM (inactive) | > 100 µM (inactive) | > 100 µM (inactive) | > 100 µM (inactive) | > 100 µM (inactive) | > 100 µM (inactive) | > 100 µM (inactive) | > 100 µM (inactive)
CC1(O)CC2C(CC1SCCO)C2(C)C (stereo not given) | > 100 µM (inactive) | – | > 100 µM (inactive) | > 100 µM (inactive) | > 100 µM (inactive) | > 100 µM (inactive) | > 100 µM (inactive) | > 100 µM (inactive) | > 100 µM (inactive) | > 100 µM (inactive) | > 100 µM (inactive) | > 100 µM (inactive) | > 100 µM (inactive) | > 100 µM (inactive) | – | > 100 µM (inactive) | –
Cn1nc(-c2ccccc2)c(C(=O)/C=C/c2ccc(Cl)cc2)c(N2CCCCC2)c1=O | – | – | – | 3.52 µM (inactive) | – | 1.91 µM (inactive) | 3.72 µM (inactive) | 1.82 µM (inactive) | 1.86 µM (inactive) | 2.15 µM (inactive) | – | 1.65 µM (inactive) | 1.45 µM (inactive) | 1.61 µM (inactive) | 2.41 µM (inactive) | 1.53 µM (inactive) | 1.85 µM (inactive)
C=C1C(=O)OC2C1CC[C@H](C)C1(O)C(O)CC(=O)[C@@]21C (stereo not given in full) | 17.3 µM (inactive) | 21.7 µM (inactive) | 10 µM (inactive) | 24.9 µM (inactive) | 21.2 µM (inactive) | 27.7 µM (inactive) | > 10 µM (inactive) | 17 µM (inactive) | 49.8 µM (inactive) | 28.8 µM (inactive) | 24.7 µM (inactive) | 28.6 µM (inactive) | 20.4 µM (inactive) | 19 µM (inactive) | – | 14.4 µM (inactive) | –
COC(=O)C1=C(C)N(NC(N)=O)C(C)(O)C12CCOC2=O (stereo not given) | > 100 µM (inactive) | > 100 µM (inactive) | > 100 µM (inactive) | > 100 µM (inactive) | > 100 µM (inactive) | > 100 µM (inactive) | > 100 µM (inactive) | > 100 µM (inactive) | > 100 µM (inactive) | > 100 µM (inactive) | – | > 100 µM (inactive) | > 100 µM (inactive) | > 100 µM (inactive) | > 100 µM (inactive) | > 100 µM (inactive) | > 100 µM (inactive)
O=C1CCCCC/C=C2/CC[C@H](Sc3ccccc3)[C@@H]12 | 87.1 µM (inactive) | > 100 µM (inactive) | – | 82.2 µM (inactive) | – | – | 49.9 µM (inactive) | 52.1 µM (inactive) | 80.7 µM (inactive) | – | 36.8 µM (inactive) | 50 µM (inactive) | > 100 µM (inactive) | – | 43 µM (inactive) | 31.4 µM (inactive) | –
O=C(Nc1ccccc1)O/N=C1/CCCC/C1=C\c1ccccc1 | – | 24.9 µM (inactive) | 23.2 µM (inactive) | 20.3 µM (inactive) | 15.2 µM (inactive) | 22.9 µM (inactive) | 17.9 µM (inactive) | – | 16.2 µM (inactive) | 3.55 µM (inactive) | 13.9 µM (inactive) | 13.2 µM (inactive) | 28.2 µM (inactive) | 17.7 µM (inactive) | 18.9 µM (inactive) | 5.53 µM (inactive) | 16.4 µM (inactive)
O=C(CN1CCCCC1)N1CCc2c([nH]c3ccccc23)C1c1cccnc1 (stereo not given) | > 100 µM (inactive) | – | > 100 µM (inactive) | > 100 µM (inactive) | > 100 µM (inactive) | 34.6 µM (inactive) | > 100 µM (inactive) | > 100 µM (inactive) | > 100 µM (inactive) | > 100 µM (inactive) | > 100 µM (inactive) | 48.8 µM (inactive) | > 100 µM (inactive) | > 100 µM (inactive) | > 100 µM (inactive) | > 100 µM (inactive) | > 100 µM (inactive)
